Some test systems named below: DU-145 prostate; 786-0 renal; LOX IMVI melanoma; TK-10 renal; SK-OV-3 ovarian; SF-268 CNS; ACHN renal; NCI-H522 lung; UACC-257 melanoma; COLO 205 colon; PC-3 prostate; M19-MEL melanoma.
Holding throughout (assay): growth of human tumour cells (NCI), 48 h

The structures appear in SMILES notation.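 Cultured in 96-well plates, cells were exposed to test compound for 48 hours across five concentrations. The concentration for 50% growth inhibition is given as GI50. TGI: concentration producing complete growth inhibition.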 A value given as a limit tells only on which side of the number the result lay.

On to `CC1(C)[C@@H]2CC[C@]1(C)[C@H](OC(=O)/C=C/c1ccccc1)C2`, for which the TGI is 47.9 µM in the assay on DU-145 prostate; 32.3 µM in the assay on 786-0 renal; 37.1 µM in the assay with LOX IMVI melanoma; more than 100 µM with TK-10 renal; 84.2 µM in the assay on SK-OV-3 ovarian; 33.9 µM with SF-268 CNS. Also, the TGI was determined as 31.9 µM in the assay with ACHN renal; 28.6 µM in the assay on NCI-H522 lung; 63.3 µM in the assay with UACC-257 melanoma; 31 µM in the assay with COLO 205 colon; 56.4 µM in the assay on PC-3 prostate.

Turning to `CC(CC(N)C(=O)O)C(=O)O` (configuration not stated), the TGI with DU-145 prostate, in the assay on 786-0 renal, with LOX IMVI melanoma, in the assay with TK-10 renal, with SF-268 CNS and in the assay with ACHN renal was more than 100 µM in each case. The TGI with NCI-H522 lung, in the assay with UACC-257 melanoma and with PC-3 prostate was more than 100 µM in each case.

Consider `C=CCN1/C(=C(\C#N)c2nc3ccccc3[nH]2)Sc2c1nc[nH]c2=O`, for which the TGI in the assay with TK-10 renal, with SK-OV-3 ovarian, in the assay on SF-268 CNS, with ACHN renal, in the assay with NCI-H522 lung and with UACC-257 melanoma was more than 100 µM throughout. Further, the TGI with COLO 205 colon and in the assay with M19-MEL melanoma was more than 100 µM each time.

In the case of `COc1cc(OC)cc(-c2ccc(-c3ccc(C(=N)N)cn3)o2)c1`, the GI50 in the assay on DU-145 prostate is 1760 nM; with TK-10 renal it was 1790 nM; in the assay on SK-OV-3 ovarian, 1910 nM; with SF-268 CNS, 1860 nM; in the assay on ACHN renal, 1710 nM; in the assay on UACC-257 melanoma it was 1760 nM. Moreover, the GI50 in the assay on COLO 205 colon is 1620 nM; in the assay with PC-3 prostate it was 1650 nM. Further, the TGI with DU-145 prostate was 3.25 µM; in the assay on TK-10 renal, 3.26 µM; in the assay with SK-OV-3 ovarian it was 3.34 µM; with SF-268 CNS, 3.62 µM; with ACHN renal it was 3.16 µM; in the assay on UACC-257 melanoma, 3.3 µM. Moreover, the figures for the TGI with COLO 205 colon and with PC-3 prostate were 3.27 µM and 3.14 µM, respectively.

On to `COc1nc2cccc(C(O)c3ccccc3)c2nc1-c1ccccc1` (configuration not stated), for which the TGI in the assay with DU-145 prostate is 26.9 µM; in the assay on LOX IMVI melanoma it was 22 µM; with TK-10 renal, more than 100 µM; in the assay with SF-268 CNS, 33.4 µM; in the assay with ACHN renal, 72.9 µM; with NCI-H522 lung, 27.2 µM. Besides, the TGI came to 26.9 µM in the assay on UACC-257 melanoma, 16.3 µM in the assay with COLO 205 colon and 65.5 µM in the assay on PC-3 prostate.

`N#CC(N=Nc1ccccc1C(=O)O)C(N)=O` (configuration not stated): the TGI in the assay with DU-145 prostate, with 786-0 renal, with TK-10 renal, with ACHN renal, in the assay on NCI-H522 lung and in the assay with UACC-257 melanoma was more than 100 µM throughout. In the assay on PC-3 prostate, this compound registered a TGI of more than 100 µM.

With `Cc1[nH]c(=O)[nH]c(=O)c1/C=C/C(=O)O` (tested in a mixture with another compound), the TGI in the assay with LOX IMVI melanoma, in the assay with SK-OV-3 ovarian, in the assay on SF-268 CNS, in the assay with NCI-H522 lung, in the assay on UACC-257 melanoma and in the assay with COLO 205 colon was more than 625 µM throughout. Further, in the assay on M19-MEL melanoma, the TGI was more than 625 µM.

For the compound `OCC1COc2cc(Cl)c(Cl)cc2O1` (configuration not stated), the TGI in the assay on DU-145 prostate, in the assay with LOX IMVI melanoma, in the assay with TK-10 renal, with SK-OV-3 ovarian, in the assay on SF-268 CNS and with ACHN renal was more than 10 µM throughout. The TGI in the assay with NCI-H522 lung, in the assay with COLO 205 colon and with PC-3 prostate was more than 10 µM each time.

For the compound `CCC(C)C(N)C(=O)NC(CC(N)=O)C(=O)NC(CC(C)C)C(=O)NC(CCCCN)C(=O)NC(C)C(=O)NC(CC(C)C)C(=O)NC(C)C(=O)NC(C)C(=O)NC(CC(C)C)C(=O)NC(C)C(=O)NC(CCCCN)C(=O)NC(CCCCN)C(=O)NC(C(=O)NC(CC(C)C)C(N)=O)C(C)CC` (configuration not stated), the TGI worked out at 13.7 µM with 786-0 renal; 35.3 µM with LOX IMVI melanoma; 27.6 µM in the assay on TK-10 renal; 33.7 µM with SK-OV-3 ovarian; 14.7 µM with SF-268 CNS; 27.2 µM in the assay on ACHN renal. In addition, the TGI was 33.3 µM in the assay with NCI-H522 lung, 19.1 µM in the assay on UACC-257 melanoma, 32.1 µM with COLO 205 colon and 25.9 µM with M19-MEL melanoma.

As for `O=c1[nH]nc(NCc2ccccc2)c2nnn(Cc3ccccc3)c12`, the TGI in the assay on DU-145 prostate, in the assay with LOX IMVI melanoma, in the assay with TK-10 renal, in the assay on ACHN renal, in the assay with UACC-257 melanoma and in the assay with COLO 205 colon was more than 100 µM each time. In the assay on PC-3 prostate, the TGI was more than 100 µM.

In the case of `NCCSc1cc(O)c2c(c1N)C(=O)c1ccccc1C2=O`, the TGI was more than 100 µM with 786-0 renal; more than 100 µM in the assay on TK-10 renal; more than 100 µM in the assay on SK-OV-3 ovarian; more than 100 µM in the assay with SF-268 CNS; more than 100 µM with ACHN renal; 39.7 µM with NCI-H522 lung. In the assay with M19-MEL melanoma, this compound gave a TGI of 73.6 µM.

`CSCC[C@@H]1C(=O)N(C)[C@H](C(C)(C)C)N1C(=O)c1ccccc1`: the TGI in the assay on LOX IMVI melanoma, with SK-OV-3 ovarian, with SF-268 CNS, in the assay on NCI-H522 lung, with UACC-257 melanoma and in the assay with COLO 205 colon was more than 100 µM each time. The compound also yielded a TGI in the assay on M19-MEL melanoma of more than 100 µM.

For the compound `COc1cc2c3cc1Oc1c(O)c(OC)cc4c1C(Cc1ccc(O)c(c1)Oc1ccc(cc1)CC3N(C)CC2)N(C)CC4` (configuration not stated), the TGI with 786-0 renal was 25.9 µM; with LOX IMVI melanoma it was 10.7 µM; in the assay on TK-10 renal, 18.2 µM; in the assay on SK-OV-3 ovarian, 40.1 µM; in the assay on SF-268 CNS it was 31.9 µM; in the assay with ACHN renal it was 33.7 µM. Further, the TGI amounted to 29.7 µM in the assay on NCI-H522 lung, 33.4 µM with UACC-257 melanoma, 43.4 µM in the assay with COLO 205 colon and 43.8 µM with M19-MEL melanoma.

For the origin of these results see PubChem BioAssay (NCI).
